Experiments:
[1] = tested on: Patients presenting early symptoms of stroke; experiment: Stroke Rehabilitation Assessment of Movement (STREAM); format: in vivo, human; details: with standard of care
Protocol: Patients presenting early symptoms of stroke, in addition to being provided standard of care for stroke, are prescribed Mg-DHA or Mg Citrate capsules formulated to provide a daily dose of 150 mg of elemental magnesium or DHA capsules for two weeks when recovery from stroke is assessed.
Patients presenting early symptoms of stroke, in addition to being provided standard of care for stroke, are prescribed Mg-DHA-LysoPC or Mg Citrate capsules prepared and formulated to provide 150 mg of elemental magnesium, or DHA-LysoPC capsules for two weeks when recovery is assessed.
Patients presenting early symptoms of stroke, in addition to being provided standard of care for stroke, are prescribed Mg-EPA or Mg Citrate capsules formulated to provide 150 mg of elemental magnesium, or EPA capsules for two weeks when recovery from stroke is assessed.
Patients presenting early symptoms of stroke, in addition to being provided standard of care for stroke, are prescribed either Zn-DHA or zinc gluconate capsules formulated to provide a daily dosage of 30 mg of elemental Zn, or DHA capsules for two weeks when recovery from stroke is assessed.
Patients presenting early symptoms of stroke, in addition to being provided standard of care for stroke, are prescribed either Zn-DHA-LysoPC or zinc gluconate capsules that provide a daily dosage of 30 mg of elemental Zn, or DHA-LysoPC capsules for two weeks when recovery is assessed.
Patients presenting early symptoms of stroke, in addition to being provided standard of care for stroke, are prescribed either Zn-EPA or zinc gluconate capsules formulated to provide a daily dosage of 30 mg of elemental Zn, or EPA capsules for two weeks when recovery from stroke is assessed.

[2] = Zn levels in cerebrospinal fluid of rats fed Zn compositions; format: in vivo, Sprague-Dawley rats; details: oral gavage, about 1 mg elemental zinc per kg per day for 3 weeks, compared with Zinc gluconate
Protocol: Sprague-Dawley rats are fed various […] compositions by oral gavage so as to provide about 1 mg elemental zinc per kg per day for 3 weeks. The zinc compositions include Zn-DHA, Zn-DHA-LysoPC and Zn-EPA. Control rats were administered equivalent molar amount of zinc gluconate. Cerebrospinal fluid is collected at the end of the treatment, and zinc is measured by atomic absorption spectroscopy.

[3] = 150 mg elemental magnesium daily for two weeks
[4] = 30 mg elemental Zn daily for two weeks, compared with the fatty acid alone or zinc gluconate

| SMILES | STREAM scores, recovery from stroke [1, 3] | CSF levels of Zn [2] | STREAM scores, recovery from stroke [1, 4] |
| --- | --- | --- | --- |
| CC/C=C\C/C=C\C/C=C\C/C=C\C/C=C\C/C=C\CCC(=O)[O-].CC/C=C\C/C=C\C/C=C\C/C=C\C/C=C\C/C=C\CCC(=O)[O-].[Mg+2] [Mg-DHA] | statistically significant improvement |  |  |
| CC/C=C\C/C=C\C/C=C\C/C=C\C/C=C\CCCC(=O)[O-].CC/C=C\C/C=C\C/C=C\C/C=C\C/C=C\CCCC(=O)[O-].[Mg+2] [Mg-EPA] | statistically significant improvement |  |  |
| CC/C=C\C/C=C\C/C=C\C/C=C\C/C=C\C/C=C\CCC(=O)[O-].CC/C=C\C/C=C\C/C=C\C/C=C\C/C=C\C/C=C\CCC(=O)[O-].[Zn+2] [Zn-DHA] |  | higher | statistically significant improvement |
| CC/C=C\C/C=C\C/C=C\C/C=C\C/C=C\CCCC(=O)[O-].CC/C=C\C/C=C\C/C=C\C/C=C\C/C=C\CCCC(=O)[O-].[Zn+2] [Zn-EPA] |  | higher | statistically significant improvement |

Source: patent publication US20130123355A1, “Fatty acids and metal ions compositions and uses thereof” (priority 2011, published 2013)
